Legend:
Skp2-p27 interaction = molecular target: T1, Skp2-p27 interaction (Homo sapiens, UniProt P61024+Q13309); test: p27 binding to HA-Skp2 (HA-immunoprecipitation); conditions: for p27 binding to Skp2: 10 μM, HA-Skp2 and Cks1 pretreated before p27-pT187, without ubiquitylation
T1 construct: made in house; host or cells: cell-free: rabbit reticulocyte lysate (TNT T7 Coupled Reticulocyte Lysate System, Promega) from pcDNA3.1 plasmids
Protocol: In vitro ubiquitylation assays were incubated with anti-HA affinity matrix (Roche) in IP buffer (50 mM Tris pH 7.6, 150 mM NaCl, 0.1% NP40, and Roche Complete EDTA-free protease tablet) for 16 h at 4° C. Beads were washed 3× with IP buffer and eluted with 2×SDS Sample Buffer (Boston Bioproducts) and 10% Beta-mercaptoethanol. For binding without ubiquitylation, HA-Skp2 IVT (10 μl) and Cks1 IVT (10 μl) were preincubated with anti-HA affinity matrix in IP buffer for 2 hours, with the addition of p27 kinase reaction (10 μl) for another 16 h incubation at 4° C. All reactions were analyzed after SDS/PAGE by western blotting. Where indicated, Skp2 and Cks1 were pretreated with 10 μM inhibitors for 30 minutes. Kinase reactions were performed with p27 IVT (10 μl) and 0.5 μg/ul CyclinE/CDK2 in kinase buffer (50 mM Tris HCL pH 7.5, 10 mM MgCl2, 2 mM ATP, 2.5 μM Okadaic Acid, and 0.6 mM DTT) at 30° C. for 1 h.

501 Mel cells = test: Cell cycle FACS analysis, 501 Mel; type: cell-based, human; conditions: shEmpty 501 Mel; 10 μM for 16 hours
Protocol: Whole cell extracts were prepared and immunoblotted as previously described Dorrello et al., “S6K1- and betaTRCP-mediated Degradation of PDCD4 Promotes Protein Translation and Cell Growth,” Science 314:467-471 (2006), which is hereby incorporated by reference in its entirety. For knockdown of Skp2 or p27, shRNAs were induced with 2 ng/ml doxycycline for 48 hours, with the last 16 hours co-treated with 0.1% Vehicle or 10 μM inhibitors as indicated. For cycloheximide chase, cells were pretreated 16 h with 0.1% Vehicle or 10 μM inhibitors, followed by 20 ng/ml cycloheximide (Sigma) and whole cell extracts collected for each time point. Scanning densitometry was performed on immunoblots using Image J software. For cell cycle analysis, cells were treated with 0.1% Vehicle or 10 μM inhibitors for 16 h. 1×10^6 cells were fixed in 70% ethanol for 2 h, treated with 200 μg/ml RNase A (Invitrogen) for 30 minutes, and stained with 20 μg/ml Propidium Iodine (Sigma). All samples were assayed in triplicates. Signal was detected using the Becton Dickson LSRII flow cytometer and cell cycle profiles were analyzed with FloJo.

p27 in ECC-1 cells = test: Cycloheximide p27 half-life in ECC-1 cells; type: cell-based, human; conditions: 18 h treatment, 20 μM CHX chase, control 3.2 h
Protocol: The endometrial carcinoma cell line (derived from a well-differentiated endometrioid Type I ECA) ECC-1 cells (ATCC, Manassas, Va.) were plated at a density of 3×10^5/well/6-well plate and grown in DMEM:F12 supplemented with 10% FBS (BioWest, Ocala, Fla.). The cell line was passaged in the laboratory for fewer than 6 months after receipt. […] The protocol was approved by The Institutional Review Board of NYU, informed consent was obtained, and the samples were identified and graded by two surgical pathologists and graded according to the WHO (I-III) for decreased glandular structure and nuclear atypia (Silverberg, “Hyperplasia and Carcinoma of the Endometrium,” Semin. Diagn. Pathol. 5:135-153 (1988), which is hereby incorporated by reference in its entirety). ECAs were plated at a density of 2.2×10^6 cells/6-well Primaria® plates (BD Biosciences, San Jose, Calif.) in McCoys 5A media without phenol red containing 10% charcoal-stripped FBS, 2 mM L-Glutamine (Invitrogen) and antimycotic antibiotic solution (Mediatech, Hendon, Va.). ECC-1 cells and primary ECA cells were grown to 70-80% confluence, synchronized in serum-free media for 24 h, treated with 10 […] Skp2E3LIs for 18 h or as indicated in the figures. […] Whole cell lysates were collected at increasing time points (0, 2, 4, 6 h) and 20 μg protein/well analyzed for p27 by immunoblotting.

ECC-1 cells [1] = test: ECC-1 cytotoxicity (trypan blue exclusion); type: cell-based; conditions: 10 μM, 48 h
ECC-1 cells [2] = test: ECC-1 cell proliferation (MTS assay); type: cell-based, human; conditions: for Increase in nuclear p27 and inhibition of cell proliferation following Skp2 knock-down: ECC-1, Skp2 siRNA, knock-down by 85%; for Inhibition of cell proliferation: ECC-1 transfected with control siRNA (FIG. 14B)
Protocol: ECC-1 cells in complete media were seeded at 1.2×10^5/well in 12-well plates and after 24 h the cells were transfected with either control siRNA or 10 nM Skp2 siRNA using HiPerfect transfection reagent (Qiagen; Valencia, Calif.) and siRNA to three different sites including a pool of siRNAs as shown in the experiment, as previously described (Huang et al., “Estrogen and Progesterone Regulate p27kip1 Levels via the Ubiquitin-Proteasome System: Pathogenic and Therapeutic Implications for Endometrial Cancer,” PLoS One 7:e46072 (2012), which is hereby incorporated by reference in its entirety). […] To determine the effect of C2 and C20 on cell proliferation after knock-down of Skp2, the cells were seeded in 96-well plates at a density of 1×10^4 in complete media, transfected, synchronized, treated with C2 and C20, and cell proliferation determined, as described above.

p27 in primary ECA cells = test: p27 immunoblot in primary endometrial carcinoma (ECA) cells; conditions: 10 μM for 18 h; for Increase of p27 levels over the Vehicle-treated control: grade I, total cell lysates; for Decrease of p27 in the cytoplasm / Increase of nuclear p27: grade II type I
Protocol: The endometrial carcinoma cell line (derived from a well-differentiated endometrioid Type I ECA) ECC-1 cells (ATCC, Manassas, Va.) were plated at a density of 3×10^5/well/6-well plate and grown in DMEM:F12 supplemented with 10% FBS (BioWest, Ocala, Fla.). The cell line was passaged in the laboratory for fewer than 6 months after receipt. […] ECAs were plated at a density of 2.2×10^6 cells/6-well Primaria® plates (BD Biosciences, San Jose, Calif.) in McCoys 5A media without phenol red containing 10% charcoal-stripped FBS, 2 mM L-Glutamine (Invitrogen) and antimycotic antibiotic solution (Mediatech, Hendon, Va.).
For subcellular fractionation, following treatments, cells were separated into nuclear and cytoplasmic fractions using the NE-PER kit (Thermo Scientific), and 10 μg cytoplasmic and nuclear protein fractions were loaded onto SDS-PAGE for immunoblotting. […] The membranes were incubated with peroxidase-conjugated goat anti-rabbit or goat anti-mouse secondary antibodies in TBST (1:2000; Thermo Scientific). […] Protein bands were resolved using the SuperSignal West Dura kit (Thermo Scientific), visualized by exposure to X-ray film (HyBlot; Denville Scientific, Denville, N.J.), and following densitometric scanning (Kodak Logic-100), the protein bands were quantified by normalizing to β-actin and compared to the untreated control, and the values represented by the graphs of relative protein levels compared to actin in each well and shown as % of Vehicle control.

p27 in 501 Mel cells = test: Cycloheximide p27 half-life in 501 Mel cells; type: cell-based, human; conditions: pretreated 16 hours with 10 μM inhibitor, vehicle half-life 1 hour
Protocol: To assess the mechanism of p27 induction, cycloheximide half-lives were analyzed in 501 Mel cell lines pretreated with each inhibitor (10 μM) or 0.1% DMSO (vehicle). p27 degraded rapidly with a half-life of 1 hour with vehicle, and this rate was slowed by the inhibitors (FIG. 4C). […] Protein levels of Skp2 and Skp1 remained constant.
Whole cell extracts were prepared and immunoblotted as previously described Dorrello et al., “S6K1- and betaTRCP-mediated Degradation of PDCD4 Promotes Protein Translation and Cell Growth,” Science 314:467-471 (2006), which is hereby incorporated by reference in its entirety. For knockdown of Skp2 or p27, shRNAs were induced with 2 ng/ml doxycycline for 48 hours, with the last 16 hours co-treated with 0.1% Vehicle or 10 μM inhibitors as indicated. For cycloheximide chase, cells were pretreated 16 h with 0.1% Vehicle or 10 μM inhibitors, followed by 20 ng/ml cycloheximide (Sigma) and whole cell extracts collected for each time point. 20 ng/ml cycloheximide (Sigma) was added to each plate and whole cell extract was collected for each time point. Scanning densitometry was performed on immunoblots using Image J software. For cell cycle analysis, cells were treated with 0.1% Vehicle or 10 μM inhibitors for 16 h. […] Signal was detected using the Becton Dickson LSRII flow cytometer and cell cycle profiles were analyzed with FloJo.

T1 sequence (Q13309 whole entry): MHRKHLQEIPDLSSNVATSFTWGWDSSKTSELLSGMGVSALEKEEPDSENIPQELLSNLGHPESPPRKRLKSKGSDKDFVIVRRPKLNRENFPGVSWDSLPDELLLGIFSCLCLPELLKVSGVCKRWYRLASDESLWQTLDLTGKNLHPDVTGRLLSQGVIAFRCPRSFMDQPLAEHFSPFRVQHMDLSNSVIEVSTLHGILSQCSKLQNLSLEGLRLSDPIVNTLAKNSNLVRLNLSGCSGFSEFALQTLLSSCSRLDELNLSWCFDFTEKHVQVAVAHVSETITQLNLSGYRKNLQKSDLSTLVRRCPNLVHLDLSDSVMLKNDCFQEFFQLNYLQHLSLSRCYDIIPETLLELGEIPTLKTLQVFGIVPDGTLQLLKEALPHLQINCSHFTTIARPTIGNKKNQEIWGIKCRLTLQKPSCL
T1 sequence (P61024 whole entry): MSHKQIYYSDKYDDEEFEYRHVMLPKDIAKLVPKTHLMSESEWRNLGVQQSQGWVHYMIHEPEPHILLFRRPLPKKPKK
T1 sequence (P63208 whole entry partner): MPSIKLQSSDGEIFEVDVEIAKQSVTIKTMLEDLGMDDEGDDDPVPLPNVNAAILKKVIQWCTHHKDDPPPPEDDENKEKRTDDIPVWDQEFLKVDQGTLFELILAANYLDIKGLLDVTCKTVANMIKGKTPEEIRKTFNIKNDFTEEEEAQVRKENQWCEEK
T1 sequence (Q13616 whole entry partner): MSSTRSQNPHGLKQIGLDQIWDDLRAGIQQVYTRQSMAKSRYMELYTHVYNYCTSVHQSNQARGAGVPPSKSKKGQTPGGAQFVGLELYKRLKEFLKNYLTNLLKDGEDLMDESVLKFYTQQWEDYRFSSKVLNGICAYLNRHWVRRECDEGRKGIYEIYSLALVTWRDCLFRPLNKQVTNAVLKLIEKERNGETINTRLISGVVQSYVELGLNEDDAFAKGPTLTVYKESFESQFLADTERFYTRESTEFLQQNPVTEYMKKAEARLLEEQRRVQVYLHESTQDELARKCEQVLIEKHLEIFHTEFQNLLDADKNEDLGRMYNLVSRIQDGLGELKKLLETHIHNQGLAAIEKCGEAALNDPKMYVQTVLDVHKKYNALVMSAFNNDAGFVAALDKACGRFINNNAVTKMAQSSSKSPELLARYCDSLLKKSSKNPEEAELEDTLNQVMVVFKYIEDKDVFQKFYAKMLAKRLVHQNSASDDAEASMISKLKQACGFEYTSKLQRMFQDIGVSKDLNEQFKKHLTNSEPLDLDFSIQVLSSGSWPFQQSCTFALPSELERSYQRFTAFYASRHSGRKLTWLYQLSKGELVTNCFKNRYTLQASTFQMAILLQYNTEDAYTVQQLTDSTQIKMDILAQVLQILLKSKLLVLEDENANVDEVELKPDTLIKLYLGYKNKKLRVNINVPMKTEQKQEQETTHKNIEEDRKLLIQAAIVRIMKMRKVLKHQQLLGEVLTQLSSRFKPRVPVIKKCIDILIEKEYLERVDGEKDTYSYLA
T1 sequence (P62877 whole entry partner): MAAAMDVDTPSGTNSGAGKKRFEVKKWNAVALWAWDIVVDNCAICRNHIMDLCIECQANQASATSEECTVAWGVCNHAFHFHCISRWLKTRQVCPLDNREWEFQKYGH

Amount of p27 interacting with Skp2 (Skp2-p27 interaction; 50 μM, HA-immunoprecipitates of ubiquitylation assays)	SMILES	p27 binding to Skp2 (Skp2-p27 interaction)	S phase cells (501 Mel cells)	Extension of p27 half-life over cycloheximide (CHX) control (p27 in ECC-1 cells)	Cytotoxicity (ECC-1 cells [1])	Increase in nuclear p27 and inhibition of cell proliferation following Skp2 knock-down (ECC-1 cells [2])	Inhibition of cell proliferation (ECC-1 cells [2])	Increase of p27 levels over the Vehicle-treated control (p27 in primary ECA cells)	Decrease of p27 in the cytoplasm (p27 in primary ECA cells)	Increase of nuclear p27 (p27 in primary ECA cells)	Cell death (ECC-1 cells [1])	p27 half-life (p27 in 501 Mel cells)
reduced the amount of p27	O=C(O)COc1ccc(Br)cc1C=C1SC(=S)N(Cc2cccnc2)C1=O [Compound C1]	reduce p27 binding to Skp2	a decrease in S phase cells									
	COC(=O)C1=C(C)N(c2ccc(Br)cc2)C(=O)C1=Cc1ccccc1O [Compound C2]	reduce p27 binding to Skp2	a decrease in S phase cells	6.1 h	not cytotoxic	completely abrogated	29%	1.9 fold	approximately 25%	67%		
	O=C(O)COc1ccc(C=C2SC(=O)N(CC(=O)c3ccc(Cl)cc3)C2=O)cc1 [Compound C16]	reduce p27 binding to Skp2	a decrease in S phase cells								77%	3 h
	O=C(NN=Cc1cc(Br)cc(Br)c1O)C(=Cc1ccccc1O)NC(=O)c1ccccc1 [Compound C20]	reduce p27 binding to Skp2	a decrease in S phase cells	2.7 h	not cytotoxic	completely abrogated	27%	3 fold	approximately 25%	46%		5 h

From patent publication US9261497B2, “Method of treating cancer with modulators of SCFSkp2” (New York University, priority 2012, dated 2016)
